Where “and” joins values, the source holds several entries; their conditions need not be identical. Equal entries are not always repeated.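 Tested at 5 concentrations; 48 h exposure; 96-well plates; endpoints linearly interpolated, else capped at highest concentration. The concentration for 50% growth inhibition is given as GI50. TGI is the concentration that stops growth completely.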
Assays:
Test in all cases: NCI anticancer screen, dose series, 48 h
M14 melanoma = tested on: M14 melanoma
SF-268 CNS = tested on: SF-268 CNS
RPMI-8226 leukemia = tested on: RPMI-8226 leukemia
NCI-H226 lung = tested on: NCI-H226 lung
CCRF-CEM leukemia = tested on: CCRF-CEM leukemia
UACC-257 melanoma = tested on: UACC-257 melanoma
SR leukemia = tested on: SR leukemia
786-0 renal = tested on: 786-0 renal
SF-539 CNS = tested on: SF-539 CNS
HCC-2998 colon = tested on: HCC-2998 colon

| Structure (SMILES) | TGI (M14 melanoma) | TGI (SF-268 CNS) | TGI (RPMI-8226 leukemia) | TGI (NCI-H226 lung) | TGI (CCRF-CEM leukemia) | TGI (UACC-257 melanoma) | TGI (SR leukemia) | TGI (786-0 renal) | TGI (SF-539 CNS) | TGI (HCC-2998 colon) | GI50 (M14 melanoma) | GI50 (SF-268 CNS) | GI50 (RPMI-8226 leukemia) | GI50 (NCI-H226 lung) | GI50 (CCRF-CEM leukemia) | GI50 (UACC-257 melanoma) | GI50 (SR leukemia) | GI50 (SF-539 CNS) | GI50 (HCC-2998 colon) |
| --- | --- | --- | --- | --- | --- | --- | --- | --- | --- | --- | --- | --- | --- | --- | --- | --- | --- | --- | --- |
| O=C(/C=C/c1cccs1)c1ccccc1Cl | > 55.9 µM | 26.4 µM | 61.9 µM | > 65.7 µM | 33.9 µM | 34.2 µM | > 47.6 µM | 27.8 µM | > 69.1 µM | 32.2 µM | – | – | – | – | – | – | – | – | – |
| CCOC(=O)c1cn(C)c(=S)n2c1nc1ccccc12 | > 100 µM | – | 95.6 µM | > 100 µM | > 100 µM | > 100 µM | > 100 µM | > 100 µM | > 100 µM | > 100 µM | – | – | – | – | – | – | – | – | – |
| Cc1ccc(S(=O)(=O)n2cc(C#N)c(C#N)c2)cc1 | 47.7 µM | 69.2 µM | – | – | 92.1 µM | > 100 µM | 71 µM | > 100 µM | 39.9 µM | 48.2 µM | – | – | – | – | – | – | – | – | – |
| COC(=O)c1c(-c2ccc(Cl)cc2)cc2c3ccccc3n(C)c2c1C(=O)OC | > 100 µM | > 100 µM | – | > 100 µM | > 100 µM | > 100 µM | – | > 100 µM | > 100 µM | – | – | – | – | – | – | – | – | – | – |
| CCC(CC(C)C)Nc1ccc(NC(CC)CC(C)C)cc1 (configuration not stated) | 34.7 µM | 30.6 µM | 18.5 µM | 29.9 µM | 27.8 µM | 28.4 µM | 39.7 µM | – | 33 µM | 36 µM | 16.8 µM | 16 µM | 3850 nM | 15.3 µM | 6.6 µM | 13.3 µM | 15100 nM | 17.1 µM | 19.3 µM |
| CO[C@]1(CN2CCN3CCCC[C@@H]3C2)/C=C/C[C@H](C)[C@@H](C)S(=O)(=O)NC(=O)c2ccc3c(c2)N(C[C@@H]2CC[C@H]21)C[C@@]1(CCCc2cc(Cl)ccc21)CO3 | – | – | 41.8 µM | – | 13.3 µM | 9.34 µM | – | – | 2.72 µM | 2.73 µM | – | – | 18.5 nM | – | 1.44 µM | 2.82 µM | – | 1.39 µM | 1.4 µM |
| CC(=O)CC(=O)CCC(=O)O | > 100 µM | > 100 µM | – | > 100 µM | – | > 100 µM | > 100 µM | – | > 100 µM | > 100 µM | – | – | – | – | – | – | – | – | – |
| CC(C)(C)OC(=O)n1cc(C2CN(O)C(=O)C23CCC(=O)N3Cc2ccccc2)c2ccccc21 (configuration not stated) | > 100 µM | > 100 µM | 93.5 µM | 62 µM | > 100 µM | > 100 µM | > 100 µM | > 100 µM | > 100 µM | – | – | – | – | – | – | – | – | – | – |
| Cc1csc(NC(=NCCN2CCOCC2)Nc2nc(C)cs2)n1 | – | > 100 µM | > 100 µM | > 100 µM | > 100 µM | > 100 µM | – | – | > 100 µM | > 100 µM | – | – | – | – | – | – | – | – | – |
| CSc1ccc(/C=C2\N=C(c3ccccc3)N(/N=C/c3cc4cc(C)ccc4nc3Cl)C2=O)cc1 | 38.4 µM | 47.6 µM | > 100 µM | – | > 100 µM | 39.8 µM | 44.2 µM | 35.1 µM | 43.3 µM | 35.5 µM | – | – | – | – | – | – | – | – | – |
| CC(=O)O[C@H]1CC[C@@]2(C)[C@H](CC[C@@H]3[C@@H]2CC[C@]2(C)[C@@H](c4ccc(=O)oc4)C[C@H]4O[C@]342)C1 | – | 1.29 µM | 5.1 µM | 7.75 µM | 1.52 µM | 6.89 µM | – | – | 1.72 µM | 8.88 µM | – | – | – | – | – | – | – | – | – |
| Cc1nc2ccc(Cl)cc2c2c1CCN2c1ccccc1 | – | 83.9 µM | 31.4 µM | 22 µM | 23.1 µM | 29.1 µM | 36.3 µM | 25.2 µM | 28.8 µM | 24.8 µM | – | – | – | – | – | – | – | – | – |
| COc1ccccc1CNCCCCCCCCCCCCN1C(=O)c2ccc3c4c(ccc(c24)C1=O)C(=O)N(CCCCCCCCCCCCNCc1ccccc1OC)C3=O | – | > 50 µM | – | > 50 µM | – | > 5 µM | – | – | – | > 50 µM | – | > 50 µM | – | > 50 µM | – | > 5 µM | – | – | > 50 µM |
| O=[N+]([O-])c1ccc(C(Nc2ccccc2)c2ccc3cccnc3c2O)cc1 (configuration not stated) | > 74.4 µM | > 52.7 µM | 38.5 µM | > 27.7 µM | > 22.2 µM | 42.8 µM | – | 26.1 µM | 21.1 µM | 97.7 µM | – | – | – | – | – | – | – | – | – |
| C=C(C)[C@@H]1CC[C@]2(C(=O)O)CC[C@]3(C)[C@H](CCC4[C@@]5(C)CC[C@H](C(=O)/C=C/c6ccc(O)c(O)c6)C(C)(C)[C@@H]5CC[C@]43C)[C@@H]12 (some centres not stated) | 14.7 µM | > 100 µM | – | – | > 100 µM | 11 µM | > 100 µM | 30.2 µM | – | 7 µM | – | – | – | – | – | – | – | – | – |
| O=C(c1ccco1)N(C(=S)OC12CC3CC(CC(C3)C1)C2)c1ccccc1 | 43.7 µM | > 100 µM | – | > 100 µM | 59.5 µM | > 100 µM | 97.9 µM | 93.4 µM | 41.7 µM | 72 µM | – | – | – | – | – | – | – | – | – |
| c1ccc(-c2nnn(CCN3CCCCC3)n2)cc1 | > 100 µM | > 100 µM | > 100 µM | > 100 µM | > 100 µM | > 100 µM | > 100 µM | > 100 µM | – | > 100 µM | – | – | – | – | – | – | – | – | – |
| Cc1ccccc1OC(C)C(=O)NN1C(=O)CC(=O)N(c2ccccc2)C1=S (configuration not stated) | > 100 µM | > 100 µM | > 100 µM | > 100 µM | – | > 100 µM | – | > 100 µM | > 100 µM | > 100 µM | – | – | – | – | – | – | – | – | – |
| O=C1C=CC(=O)c2c(O)c(N3CCN(CCOCCO)CC3)c(Cl)c(O)c21 | – | – | 1.01 µM [middle of 4 runs] | 4.68 µM [middle of 4 runs] | – | – | 0.43 µM and 0.614 µM and 0.321 µM | – | 3.31 µM [middle of 4 runs] | – | – | – | 277 nM [middle of 4 runs] | 2.69 µM | – | – | 104 nM and 38.2 nM and 77.1 nM | – | 2.27 µM |
| C=CC1CN2CCC1CC2C(O)c1ccnc2ccccc12 (configuration not stated) | > 100 µM | > 100 µM | – | > 100 µM | > 100 µM | > 100 µM | > 100 µM | > 100 µM | > 100 µM | > 100 µM | > 100 µM | – | – | – | > 100 µM | – | > 100000 nM | – | > 100 µM |
| NC(=O)Cc1nc2c(=O)[nH]cnc2n1C1OC(CO)C(O)C1O (configuration not stated) | > 100 µM | > 100 µM | > 100 µM | > 100 µM | > 100 µM | > 100 µM | – | > 100 µM | > 100 µM | > 100 µM | – | – | – | – | – | – | – | – | – |
| Cc1[nH]c(=O)[nH]c(=S)c1C(=O)Nc1cccc2cc3ccccc3cc12 | > 100 µM | > 100 µM | > 100 µM | > 100 µM | > 100 µM | – | > 100 µM | – | – | > 100 µM | – | – | – | – | – | – | – | – | – |

— PubChem BioAssay (NCI)
